Assay results reported in ChEMBL document CHEMBL4177740, “Selective inhibition of β-N-acetylhexosaminidases by thioglycosyl-naphthalimide hybrid molecules” (Bioorg Med Chem, 2018).

What was measured:
[1] = molecular target: T1, Protein O-GlcNAcase (Homo sapiens) (UniProt O60502); test: Inhibition of recombinant human OGA expressed in Escherichia coli BL21(DE3) at 100 uM using 4-MU-GlcNAc as substrate measured after 30 mins by fluorescence assay relative to control
T1 sequence (whole entry): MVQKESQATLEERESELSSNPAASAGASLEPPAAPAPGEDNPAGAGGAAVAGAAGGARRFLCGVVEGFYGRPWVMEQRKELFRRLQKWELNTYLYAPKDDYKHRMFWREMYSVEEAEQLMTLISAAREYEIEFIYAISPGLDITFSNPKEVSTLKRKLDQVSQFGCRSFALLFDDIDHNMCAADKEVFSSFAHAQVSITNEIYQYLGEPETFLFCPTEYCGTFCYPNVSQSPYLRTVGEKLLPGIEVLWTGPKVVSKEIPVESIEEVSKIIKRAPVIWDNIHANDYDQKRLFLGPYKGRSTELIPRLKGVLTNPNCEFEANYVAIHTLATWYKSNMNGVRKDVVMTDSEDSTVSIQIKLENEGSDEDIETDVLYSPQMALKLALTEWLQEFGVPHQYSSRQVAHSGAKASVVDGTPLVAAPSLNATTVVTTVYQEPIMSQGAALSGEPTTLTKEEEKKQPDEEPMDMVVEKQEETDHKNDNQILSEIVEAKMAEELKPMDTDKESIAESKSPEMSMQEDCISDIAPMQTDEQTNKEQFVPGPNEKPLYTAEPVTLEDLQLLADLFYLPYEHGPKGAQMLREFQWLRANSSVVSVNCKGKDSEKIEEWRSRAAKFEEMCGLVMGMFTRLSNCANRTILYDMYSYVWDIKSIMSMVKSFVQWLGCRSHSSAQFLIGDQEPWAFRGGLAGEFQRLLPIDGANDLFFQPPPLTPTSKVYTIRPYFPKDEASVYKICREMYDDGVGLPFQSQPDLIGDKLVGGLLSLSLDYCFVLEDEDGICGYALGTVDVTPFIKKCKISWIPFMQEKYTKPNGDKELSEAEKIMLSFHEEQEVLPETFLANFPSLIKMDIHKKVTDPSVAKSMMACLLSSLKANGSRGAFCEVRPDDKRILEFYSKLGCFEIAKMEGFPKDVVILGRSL

[2] = molecular target: T2, Chitooligosaccharidolytic beta-N-acetylglucosaminidase (Ostrinia furnacalis) (UniProt Q06GJ0); test: Inhibition of Ostrinia furnacalis Hex1 expressed in Pichia pastoris at 100 uM using 4-MU-GlcNAc as substrate measured after 30 mins by fluorescence assay relative to control
T2 sequence (whole entry): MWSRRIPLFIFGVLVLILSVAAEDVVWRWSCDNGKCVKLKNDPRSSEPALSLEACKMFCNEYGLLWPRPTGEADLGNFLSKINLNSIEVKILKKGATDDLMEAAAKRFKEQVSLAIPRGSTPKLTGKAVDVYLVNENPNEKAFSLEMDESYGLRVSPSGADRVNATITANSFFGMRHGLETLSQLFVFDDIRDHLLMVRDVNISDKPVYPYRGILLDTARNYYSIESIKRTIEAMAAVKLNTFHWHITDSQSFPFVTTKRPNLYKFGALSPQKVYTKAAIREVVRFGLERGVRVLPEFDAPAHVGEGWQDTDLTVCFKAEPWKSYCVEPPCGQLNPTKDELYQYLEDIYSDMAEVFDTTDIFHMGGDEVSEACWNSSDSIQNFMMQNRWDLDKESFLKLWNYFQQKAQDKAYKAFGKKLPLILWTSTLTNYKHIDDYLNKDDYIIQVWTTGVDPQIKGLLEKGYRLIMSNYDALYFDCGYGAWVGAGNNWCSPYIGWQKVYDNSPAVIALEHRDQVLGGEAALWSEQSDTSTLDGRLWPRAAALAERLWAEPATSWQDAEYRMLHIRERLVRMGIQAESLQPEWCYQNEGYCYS

[3] = molecular target: T3, Protein O-GlcNAcase (Homo sapiens, UniProt O60502); test: Inhibition of recombinant human OGA expressed in Escherichia coli BL21(DE3) using varying levels of 4-MU-GlcNAc as substrate measured after 30 mins by fluorescence assay
T3 sequence (O60502 whole entry): T1 sequence (whole entry)

[4] = molecular target: T4, Chitooligosaccharidolytic beta-N-acetylglucosaminidase (Ostrinia furnacalis, UniProt Q06GJ0); test: Inhibition of Ostrinia furnacalis Hex1 expressed in Pichia pastoris using varying levels of 4-MU-GlcNAc as substrate measured after 30 mins by fluorescence assay
T4 sequence (Q06GJ0 whole entry): T2 sequence (whole entry)

[5] = molecular target: T1, Protein O-GlcNAcase (Homo sapiens); test: Inhibition of recombinant human OGA expressed in Escherichia coli BL21(DE3) at 200 uM using 4-MU-GlcNAc as substrate measured after 30 mins by fluorescence assay relative to control
[6] = molecular target: T2, Chitooligosaccharidolytic beta-N-acetylglucosaminidase (Ostrinia furnacalis); test: Inhibition of Ostrinia furnacalis Hex1 expressed in Pichia pastoris at 200 uM using varying levels of 4-MU-GlcNAc as substrate measured after 30 mins by fluorescence assay relative to control

Structure (SMILES)	inhibition [1] [%]	inhibition [2] [%]	Ki [3] [µM]	Ki [4] [µM]	inhibition [5] [%]	inhibition [6] [%]
CC(=O)N[C@@H]1[C@@H](O)[C@H](O)[C@@H](CO)O[C@H]1SCCC(=O)NCCN1C(=O)c2cccc3cccc(c23)C1=O	66.9	25.8				
NN1C(=O)c2cccc3cccc(c23)C1=O	22.2	28.1				
CC(=O)N[C@@H]1[C@@H](O)[C@H](O)[C@@H](CO)O[C@H]1SCCn1cc(CN2C(=O)c3cccc4cccc(c34)C2=O)nn1	27.8	84				
CC(=O)N[C@@H]1[C@@H](O)[C@H](O)[C@@H](CO)O[C@H]1S	12	0				
CC(=O)N[C@@H]1[C@@H](O)[C@H](O)[C@@H](CO)O[C@H]1SCCCCCn1cc(CN2C(=O)c3cccc4cccc(c34)C2=O)nn1	26	91.9				
CC(=O)N[C@@H]1[C@@H](O)[C@H](O)[C@@H](CO)O[C@H]1SCCCCCCn1cc(CN2C(=O)c3cccc4cccc(c34)C2=O)nn1	25.7	93.2	> 200	21.8	< 50	
CC(=O)N[C@@H]1[C@@H](O)[C@H](O)[C@@H](CO)O[C@H]1SCC(=O)NCCN1C(=O)c2cccc3cccc(c23)C1=O	38.6	18.4				
CC(=O)N[C@@H]1[C@@H](O)[C@H](O)[C@@H](CO)O[C@H]1SCC(=O)NCCCN1C(=O)c2cccc3cccc(c23)C1=O	97.6	29.2		> 200		< 50
CC(=O)N[C@@H]1[C@@H](O)[C@H](O)[C@@H](CO)O[C@H]1SCCC(=O)NCCCCN1C(=O)c2cccc3cccc(c23)C1=O	34.3	26.9				
CC(=O)N[C@@H]1[C@@H](O)[C@H](O)[C@@H](CO)O[C@H]1SCC(=O)NCCCCN1C(=O)c2cccc3cccc(c23)C1=O	50	29.1				

More lines, now with the values ahead:

inhibition [1] [%]	inhibition [2] [%]	Ki [3] [µM]	Ki [4] [µM]	inhibition [5] [%]	inhibition [6] [%]	Structure (SMILES)
18.5	17.9					CC(=O)N[C@@H]1[C@@H](O)[C@H](O)[C@@H](CO)O[C@H]1SCn1cc(CN2C(=O)c3cccc4cccc(c34)C2=O)nn1
25.1	89.9					CC(=O)N[C@@H]1[C@@H](O)[C@H](O)[C@@H](CO)O[C@H]1SCCCCn1cc(CN2C(=O)c3cccc4cccc(c34)C2=O)nn1
59.4	25.3					CC(=O)N[C@@H]1[C@@H](O)[C@H](O)[C@@H](CO)O[C@H]1SCCC(=O)NCCCN1C(=O)c2cccc3cccc(c23)C1=O
98.9	97.5					CC(=O)N[C@H]1/C(=N/OC(=O)Nc2ccccc2)O[C@H](CO)[C@@H](O)[C@@H]1O
31.1	24.9					CC(=O)N[C@@H]1[C@@H](O)[C@H](O)[C@@H](CO)O[C@H]1SCC(=O)NN1C(=O)c2cccc3cccc(c23)C1=O
22.7	81.6					CC(=O)N[C@@H]1[C@@H](O)[C@H](O)[C@@H](CO)O[C@H]1SCCCn1cc(CN2C(=O)c3cccc4cccc(c34)C2=O)nn1
